Laboratory results taken from US20120225896A1, “NOVEL 2-PYRIDONE DERIVATIVE AND PHARMACEUTICAL PRODUCT CONTAINING SAME” (KOWA COMPANY, LTD., priority 2009, published 2012).
Like-named read-outs stand apart in the source and are kept apart here.

Columns and labels:
human PPARγ2 = biological target: T1, human PPARγ2 (Homo sapiens, UniProt P37231); test: PPARγ activation activity, Gal4-PPARγ2 LBD chimera luciferase transfection assay in COST cells; format: cell-based
T1 construct: the amino acids 182 to 505 of human PPARγ2; expressed in transfected cells; African green monkey kidney
T1 sequence (P37231 182-505): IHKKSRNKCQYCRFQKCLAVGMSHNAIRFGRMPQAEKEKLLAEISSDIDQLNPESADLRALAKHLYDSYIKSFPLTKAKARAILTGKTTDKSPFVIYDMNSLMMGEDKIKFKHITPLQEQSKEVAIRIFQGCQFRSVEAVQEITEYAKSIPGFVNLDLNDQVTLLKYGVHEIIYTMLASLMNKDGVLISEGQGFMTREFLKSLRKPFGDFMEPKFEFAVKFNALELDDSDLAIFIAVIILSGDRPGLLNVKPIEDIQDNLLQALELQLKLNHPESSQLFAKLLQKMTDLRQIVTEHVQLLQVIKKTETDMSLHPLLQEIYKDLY
T1 sequence (P04386 1-147 partner limits assumed): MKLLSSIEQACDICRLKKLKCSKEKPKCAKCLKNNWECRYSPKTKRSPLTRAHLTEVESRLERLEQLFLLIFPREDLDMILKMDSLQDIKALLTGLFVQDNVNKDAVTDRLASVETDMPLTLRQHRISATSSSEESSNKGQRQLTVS
Method: PPARγ Activation Activity
The agonistic activity of the compounds of the invention on PPARγ was measured based on the transfection assay using COST cells (DS Pharma Biomedical Co., Ltd., Osaka, Japan), which are the cell line derived from the kidney of the African green monkey. COST cells were cultured under 5% CO2 concentration, and DMEM medium containing 10% fetal bovine serum, glutamic acid, and antibiotics was used as a medium.
As an expression vector, a chimera in which DNA binding domain of Ga14, which is a yeast transcription factor, and ligand binding domain of human PPARγ2 are fused, i.e., a fused product between the amino acids 1 to 147 of Gal4 transcription factor and the amino acids 182 to 505 of human PPARγ2, was used. Furthermore, as a reporter vector, a firefly luciferase containing five copies of Gal4 recognition sequence in the promoter region was used. Plasmid transfection to the cells was performed according to a method which uses jetPEI (trade name, manufactured by Funakoshi Co., Ltd., Tokyo, Japan). Furthermore, β-galactosidase expression vector was employed as an internal standard.
After the transfection of the cells, the medium was replaced with a DMEM medium (containing 1% serum) added with the test compound, and the cells were further cultured for 16 hours. After that, the luciferase activity and β-galactosidase activity in the cell lysis solution were measured.
For the present test, dimethyl sulfoxide (DMSO) was used for dissolution and dilution of the test compounds, and during the cell treatment, the DMSO concentration in DMEM medium (containing 1% serum) was adjusted to 0.1%. The 50% effective concentration of the test compound (EC50, 50% effect concentration) was calculated by using SAS Preclinical Package Ver 5.0 (trade name, manufactured by SAS institute Japan Co., Tokyo, Japan), which is a statistical analysis program.
As shown in the Table 2, it was confirmed that the compounds of the present invention have a potent PPARγ activation activity. Under the same condition, the PPARγ activation activity of telmisartan, i.e., EC50, was 1 to 5 μM.

[1] = biological target: T2, angiotensin II type 1 receptor (Oryctolagus cuniculus, UniProt P34976); test: Angiotensin II antagonistic activity in isolated rabbit blood vessels (angiotensin II-induced contraction of thoracic aorta ring); format: cell-based; details: angiotensin II (10 nM)-induced contraction, 37° C.
T2 construct: By using a specimen of isolated rabbit blood vessels; from tissue; host or cells: rabbit thoracic aorta ring (New Zealand White, male)
T2 sequence (P34976 1-359): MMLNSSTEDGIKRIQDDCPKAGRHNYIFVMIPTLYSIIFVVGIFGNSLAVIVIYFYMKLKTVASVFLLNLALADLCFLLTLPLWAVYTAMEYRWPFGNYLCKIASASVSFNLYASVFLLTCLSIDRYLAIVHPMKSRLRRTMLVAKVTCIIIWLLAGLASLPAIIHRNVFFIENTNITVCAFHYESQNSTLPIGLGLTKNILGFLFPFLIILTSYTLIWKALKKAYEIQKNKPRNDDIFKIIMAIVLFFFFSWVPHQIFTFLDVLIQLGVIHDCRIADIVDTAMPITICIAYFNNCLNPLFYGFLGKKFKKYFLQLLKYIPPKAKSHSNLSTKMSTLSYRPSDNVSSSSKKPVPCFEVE
Text: Angiotensin II Antagonistic Activity in Isolated Rabbit Blood Vessels
By using a specimen of isolated rabbit blood vessels, antagonistic activity of the compounds of the invention against angiotensin II type 1 receptor was estimated from a dose-response curve of angiotensin II-induced blood vessel contraction. Specifically, the specimen of thoracic aorta ring of a rabbit (New Zealand White: male, 2.4 to 3.0 kg) was suspended in a magnus bath filled with Krebs-Henseleite buffer (composition: 118 mM NaCl, 4.7 mM KCl, 2.55 mM CaCl2, 1.18 mM MgSO4, 1.18 mM KH2PO4, 24.88 mM NaHCO3, and 11.1 mM D-glucose), and angiotensin II (10 nM)-induced contraction was obtained in the presence of the compounds of each example (1 nmol/L to 10 μmol/L). During the measurement, the inside temperature of the magnus bath was maintained at 37° C. and the bath was continuously ventilated with a sufficient amount of mixed gas (95% O2 and 5% CO2). The angiotensin II-induced contraction was converted into a relative value (%) that is based on the angiotensin II (10 nM)-induced contraction in the absence of the compounds of each example. From the concentration-response curve obtained therefrom, 50% inhibition concentration (IC50 value) was calculated by using SAS Preclinical Package Ver5.0 (trade name, manufactured by SAS institute Japan Co., Tokyo, Japan), which is a statistical analysis program.
As shown in the Table 1, it was confirmed that the compounds of the invention have a potent angiotensin II antagonistic activity.

[2] = COST cells transfected with Gal4 (aa 1-147)/human PPARγ2 (aa 182-505) chimera, luciferase reporter, 16 hours, read-out: EC50

Structure (SMILES) | EC50 (human PPARγ2; [2]) [µM] | IC50 [1] [µM] | EC50 (human PPARγ2) [µM]
CCCCc1cc(C)n(Cc2ccccc2)c(=O)c1Cc1ccc(-c2ccccc2-c2nnn[nH]2)cc1 [Example 1, 3-{[2′-(1H-tetrazol-5-yl)biphenyl-4-yl]methyl}-1-benzyl-4-butyl-6-methylpyridin-2(1H)-one] | 0.4 |  | 
CCCCc1cc(C)n(Cc2ccccc2)c(=O)c1Cc1ccc(-c2ccccc2-c2noc(=O)[nH]2)cc1 [Example 2, 3-{4′-[(1-benzyl-4-butyl-6-methyl-2-oxo-1,2-dihydropyridin-3-yl)methyl]biphenyl-2-yl}-1,2,4-oxadiazol-5(4H)-one] | 0.26 |  | 
CCCc1cc(C)n(Cc2ccccc2)c(=O)c1Cc1ccc(-c2ccccc2-c2nnn[nH]2)cc1 [Example 3, 3-{[2′-(1H-tetrazol-5-yl)biphenyl-4-yl]methyl}-1-benzyl-6-m ethyl-4-propylpyridin-2(1H)-one] | 0.32 |  | 
CCCc1cc(C)n(Cc2ccccc2)c(=O)c1Cc1ccc(-c2ccccc2-c2noc(=O)[nH]2)cc1 [Example 4, 3-{4′-[(1-benzyl-6-methyl-2-oxo-4-propyl-1,2-dihydropyridin-3-yl)methyl]biphenyl-2-yl}-1,2,4-oxadiazol-5(4H)-one] | 0.2 |  | 
CCCCCc1cc(C)n(Cc2ccccc2)c(=O)c1Cc1ccc(-c2ccccc2-c2nnn[nH]2)cc1 [Example 5, 3-{[2′-(1H-tetrazol-5-yl)biphenyl-4-yl]methyl}-1-benzyl-6-m ethyl-4-pentylpyridin-2(1H)-one] | 0.5 |  | 
CCCCCc1cc(C)n(Cc2ccccc2)c(=O)c1Cc1ccc(-c2ccccc2-c2noc(=O)[nH]2)cc1 [Example 6, 3-{4′-[(1-benzyl-6-methyl-2-oxo-4-pentyl-1,2-dihydropyridin-3-yl)methyl]biphenyl-2-yl}-1,2,4-oxadiazol-5(4H)-one] | 0.26 |  | 
CCCCc1cc(C)n(CCc2ccccc2)c(=O)c1Cc1ccc(-c2ccccc2-c2nnn[nH]2)cc1 [Example 7, 3-{[2′-(1H-tetrazol-5-yl)biphenyl-4-yl]methyl}-4-butyl-6-methyl-1-phenethylpyridin-2(1H)-one] | 0.27 | 0.58 | 
CCCCc1cc(C)n(CCc2ccccc2)c(=O)c1Cc1ccc(-c2ccccc2-c2noc(=O)[nH]2)cc1 [Example 8, 3-{4′-[(4-butyl-6-methyl-2-oxo-1-phenethyl-1,2-dihydropyridin-3-yl)methyl]biphenyl-2-yl}-1,2,4-oxadiazol-5(4H)-one] | 0.2 | 0.39 | 
CCCCc1cc(C)n(CCOC)c(=O)c1Cc1ccc(-c2ccccc2-c2nnn[nH]2)cc1 [Example 9, 3-{[2′-(1H-tetrazol-5-yl)biphenyl-4-yl]methyl}-4-butyl-1-(2-methoxyethyl)-6-methylpyridin-2(1H)-one] | 0.56 | 0.16 | 
CCCCc1cc(C)n(CCOC)c(=O)c1Cc1ccc(-c2ccccc2-c2noc(=O)[nH]2)cc1 [Example 10, 3-{4′-{[4-butyl-1-(2-methoxyethyl)-6-methyl-2-oxo-1,2-dihydropyridin-3-yl)methyl]biphenyl-2-yl}-1,2,4-oxadiazol-5(4H)-one] | 0.45 | 0.19 | 
CCCCc1cc(C)n(-c2ncc(OCC)cn2)c(=O)c1Cc1ccc(-c2ccccc2-c2nnn[nH]2)cc1 [Example 11, 3-{[2′-(1H-tetrazol-5-yl)biphenyl-4-yl]methyl}-4-butyl-1-(5-ethoxypyrimidin-2-yl)-6-methylpyridin-2(1H)-one] | 2.22 | 0.33 | 
CCCCc1cc(C)n(-c2ncc(OCC)cn2)c(=O)c1Cc1ccc(-c2ccccc2-c2noc(=O)[nH]2)cc1 [Example 12, 3-{4′-{[4-butyl-1-(5-ethoxypyrimidin-2-yl)-6-methyl-2-oxo-1,2-dihydropyridin-3-yl]methyl}biphenyl-2-yl}-1,2,4-oxadiazol-5(4H)-one] | 0.59 | 0.46 | 
CCCCc1cc(C)n(-c2ncc(OC)cn2)c(=O)c1Cc1ccc(-c2ccccc2-c2noc(=O)[nH]2)cc1 [Example 14, 3-{4′-{[4-butyl-1-(5-methoxypyrimidin-2-yl)-6-methyl-2-oxo-1,2-dihydropyridin-3-yl]methyl}biphenyl-2-yl}-1,2,4-oxadiazol-5(4H)-one] | 1.27 | 0.54 | 
CCCCc1cc(C)n(-c2ccccn2)c(=O)c1Cc1ccc(-c2ccccc2-c2nnn[nH]2)cc1 [Example 15, 3-{[2′-(1H-tetrazol-5-yl)biphenyl-4-yl]methyl}-4-butyl-6-methyl-1-(pyridin-2-yl)pyridin-2(1H)-one] | 1.66 | 0.46 | 
CCCCc1cc(C)n(-c2ccccn2)c(=O)c1Cc1ccc(-c2ccccc2-c2noc(=O)[nH]2)cc1 [Example 16, 3-{4′-{[4-butyl-6-methyl-2-oxo-1-(pyridin-2-yl)-1,2-dihydropyridin-3-yl]methyl}biphenyl-2-yl}-1,2,4-oxadiazol-5(4H)-one] | 1.4 |  | 
CCCOc1cc(C)n(Cc2ccccc2)c(=O)c1Cc1ccc(-c2ccccc2-c2nnn[nH]2)cc1 [Example 17, 3-{[2′-(1H-tetrazol-5-yl)biphenyl-4-yl]methyl}-1-benzyl-6-m ethyl-4-propoxypyridin-2(1H)-one] | 0.58 |  | 
CCCOc1cc(C)n(Cc2ccccc2)c(=O)c1Cc1ccc(-c2ccccc2-c2noc(=O)[nH]2)cc1 [Example 18, 3-{4′-[(1-benzyl-6-methyl-2-oxo-4-propoxy-1,2-dihydropyridin-3-yl)methyl]biphenyl-2-yl}-1,2,4-oxadiazol-5(4H)-one] | 0.14 |  | 
CCCc1nc2c(C)cc(-c3nc4ccccc4n3C)cc2n1Cc1ccc(-c2ccccc2C(=O)O)cc1 [telmisartan, reference compound] |  |  | 1 to 5
